The subject of one test is male Sprague-Dawley rats. Nature of the test: APCC: in vivo screen, total cholesterol in rats fed a high fat, high cholesterol diet. Also on record: species or system rat (male Sprague-Dawley). Particulars: Rattus norvegicus, po, 16 h, 30 mg/kg by gavage, high cholesterol diet (5.5% peanut oil, 1.5% cholesterol, 0.5% cholic acid), dosed 4 PM, sacrificed 8 AM, read-out: APCC (% change TC): percent change in total cholesterol from control animals given vehicle and diet only. The text has this:
In an in vivo screen designated APCC, male Sprague-Dawley rats (200-225 g body weight) were randomly divided into treatment groups and dosed at 4 PM with either vehicle (CMC/Tween) or suspensions of invention compounds in vehicle. The normal chow diet was then replaced with a high fat, high cholesterol diet (5.5% peanut oil, 1.5% cholesterol, and 0.5% cholic acid). The rats consumed this diet ad libitum during the night and were sacrificed at 8 AM to obtain blood samples for cholesterol analysis using standard procedures. Statistical differences between mean cholesterol values for the same vehicle were determined using analysis of variance followed by Fisher's least significant test. The results of this trial for representative compounds of the present invention also appear in Table I as the percent change in total cholesterol (% TC) from control animals given vehicle and diet only. All compounds in the APCC test reported in Table 1 were administered by gavage at 30 mg/kg.

Test [1] has as its target T1, acyl-CoA: cholesterol acyltransferase (ACAT) (Rattus norvegicus, UniProt Q7TQM4).
T1 construct: tissue preparation containing rat liver microsomes (designated LAI); from tissue; host or cells: rat liver microsomes
T1 sequence (Q7TQM4 1-524): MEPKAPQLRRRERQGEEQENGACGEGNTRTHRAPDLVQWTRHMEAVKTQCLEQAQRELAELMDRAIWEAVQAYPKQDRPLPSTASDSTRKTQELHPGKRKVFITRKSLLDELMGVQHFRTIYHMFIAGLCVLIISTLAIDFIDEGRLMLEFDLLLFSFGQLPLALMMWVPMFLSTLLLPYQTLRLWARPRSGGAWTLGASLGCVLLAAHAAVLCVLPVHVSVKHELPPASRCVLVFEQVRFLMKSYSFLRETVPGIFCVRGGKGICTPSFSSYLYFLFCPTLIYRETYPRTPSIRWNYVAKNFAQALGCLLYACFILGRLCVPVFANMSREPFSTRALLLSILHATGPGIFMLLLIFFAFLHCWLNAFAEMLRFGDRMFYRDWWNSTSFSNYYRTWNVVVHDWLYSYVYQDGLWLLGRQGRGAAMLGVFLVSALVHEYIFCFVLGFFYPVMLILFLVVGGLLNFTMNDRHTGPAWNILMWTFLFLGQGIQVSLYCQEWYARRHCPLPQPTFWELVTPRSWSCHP
The experiment in a line: LAI: in vitro inhibition of ACAT (acylation of cholesterol by radiolabeled oleic acid) in rat liver microsomes. The format is biochemical. The protocol: The ability of representative compounds of the present invention to inhibit ACAT was measured using an in vitro test more fully described in F. J. Field and R. G. Salone, Biochemica et Biophysica Acta, 712:557-570 (1982). The test assesses the ability of a test compound to inhibit the acylation of cholesterol by oleic acid by measuring the amount of radiolabeled cholesterol oleate formed from radiolabeled oleic acid in a tissue preparation containing rat liver microsomes (designated LAI).
In general terms: Liver microsomes are vesicles of endoplasmic reticulum, rich in cytochrome P450 enzymes.

For 30 molecules, change in vivo and IC50 results are on record in patent US5491170A, “β-carboxy sulfonamide ACAT inhibitors” (priority 1994, dated 1996).

In the case of `CCCCCCCCN(CCCCCCCC)C(=O)CS(=O)(=O)Nc1c(C(C)C)cccc1C(C)C` [Example 3, 2-(2,6-Diisopropylphenylsulfamoyl)-N,N-dioctylacetamide], in the test with male Sprague-Dawley rats, the change in vivo at 30 mg/kg is -19%. A word on the IC50: it is the concentration needed to halve the response being measured. Read a high IC50 as lower potency. In test [1], `CCCCCCCCCCCCSC(=O)CS(=O)(=O)Nc1c(OC)cc(OC)cc1OC` [Example 17, (2,4,6-Trimethoxyphenylsulfamoyl)-thioacetic Acid S-dodecyl Ester] registered an IC50 of 570 nM. Further, the change in vivo at 30 mg/kg in the test on male Sprague-Dawley rats is -3%. Turning to `CC(C)c1cccc(C(C)C)c1NC(=O)CS(=O)(=O)Nc1c(C(C)C)cccc1C(C)C` [Example 4, N-(2,6-Diisopropylphenyl)-2-(2,6-diisopropylphenylsulfamoyl)-acetamide], the change in vivo at 30 mg/kg with male Sprague-Dawley rats was -51%. For the molecule `CC(CCc1ccccc1)COC(=O)CS(=O)(=O)Nc1c(C(C)C)cccc1C(C)C` (centres unmarked) [Example 40, (2,6-diisopropylphenylsulfamoyl)-acetic acid, (2-methyl-4-phenylbutyl) ester], half-maximal inhibition in test [1] (IC50) required 4200 nM. Besides, in the test with male Sprague-Dawley rats, the change in vivo at 30 mg/kg was -32%.

In test [1], `CCOC(=O)CS(=O)(=O)Nc1c(C(C)C)cccc1C(C)C` [Example 21, (2,6-Diisopropylphenylsulfamoyl)-acetic Acid Ethyl Ester] showed an IC50 greater than 1000 nM. For the same molecule, in the test on male Sprague-Dawley rats, the change in vivo at 30 mg/kg came to 2%. On the same counts, the results for `COc1cc(OC)c(OC(=O)CS(=O)(=O)Nc2c(C(C)C)cccc2C(C)C)c(OC)c1` [Example 25, (2,6-Diisopropylphenylsulfamoyl)-acetic Acid 2,4,6-trimethoxyphenyl Ester] are greater than 1000 nM and -6%. On the same counts, the results for `CCCCCCCCCCCCCCCCCCSC(=O)CS(=O)(=O)Nc1c(C(C)C)cccc1C(C)C` [Example 18, (2,6-Diisopropylphenylsulfamoyl)-thioacetic Acid S-octadecyl Ester] are greater than 5000 nM and -35%. `CCCCCCOC(=O)CS(=O)(=O)Nc1c(C(C)C)cccc1C(C)C` [Example 26, (2,6-Diisopropylphenylsulfamoyl)-acetic Acid Hexyl Ester]: the IC50 in test [1] was greater than 1000 nM. Besides, the change in vivo at 30 mg/kg in the test with male Sprague-Dawley rats is -5%. In the same order, the values of `CCCCCCCCCCOC(=O)CS(=O)(=O)Nc1c(C(C)C)cccc1C(C)C` [Example 24, (2,6-Diisopropylphenylsulfamoyl)-acetic Acid Decylester] are greater than 1000 nM and -16%. Consider `CCCCCCCCCCCCC(C)OC(=O)CS(=O)(=O)Nc1c(C(C)C)cccc1C(C)C` (centres unmarked) [Example 28, (2,6-Diisopropylphenylsulfamoyl)-acetic Acid 1-methyltridecyl Ester], for which the change in vivo at 30 mg/kg with male Sprague-Dawley rats was -39%. As for `CCCCCCNC(=O)CS(=O)(=O)Nc1c(C(C)C)cccc1C(C)C` [Example 6, 2-(2,6-Diisopropylphenylsulfamoyl)-N-hexyl-acetamide], the IC50 in test [1] was greater than 5000 nM. Moreover, the change in vivo at 30 mg/kg in the test with male Sprague-Dawley rats is -16%.

As to `CCCCCCCCCCCCSC(=O)CS(=O)(=O)Nc1c(C(C)C)cccc1C(C)C` [Example 10, (2,6-Diisopropylphenylsulfamoyl)-thio-acetic Acid S-dodecyl Ester], the change in vivo at 30 mg/kg with male Sprague-Dawley rats was -71%.

As to `CC(C)c1cccc(C(C)C)c1NS(=O)(=O)CC(=O)Sc1c(C(C)C)cccc1C(C)C` [Example 12, (2,6-Diisopropylphenylsulfamoyl)-thioacetic Acid 2,6-Diisopropylphenyl Ester], in test [1], the IC50 is greater than 5000 nM. In the test with male Sprague-Dawley rats, the change in vivo at 30 mg/kg is -16%. In the case of `CCCCCCCCCCCCOC(=O)CS(=O)(=O)Nc1c(C(C)C)cccc1C(C)C` [Example 29, (2,6-Diisopropylphenylsulfamoyl)-acetic Acid Dodecylester], the change in vivo at 30 mg/kg in the test on male Sprague-Dawley rats was -34%. Molecule `CCCCCCCCCCCCn1nnc(NC(=O)CS(=O)(=O)Nc2c(C(C)C)cccc2C(C)C)n1` [Example 2, 2-(2,6-Diisopropyl-phenylsulfamoyl)-N-(dodecyl-2-H-tetrazol-5-yl)-acetamide] yielded an IC50 in test [1] of 1900 nM. Moreover, in the test on male Sprague-Dawley rats, the change in vivo at 30 mg/kg was -50%. For `CCCCCCCCCCCCSC(=O)CS(=O)(=O)Nc1ccc(F)cc1F` [Example 16, (2,4-Diifluorophenylsulfamoyl)-thioacetic Acid S-dodecyl Ester], in test [1], the IC50 came out at 230 nM. In the test with male Sprague-Dawley rats, the change in vivo at 30 mg/kg is -37%. As for `CC(C)c1cccc(C(C)C)c1NS(=O)(=O)CC(=O)NC(c1ccccc1)c1ccccc1` [Example 8, 2-(2,6-Diisopropylphenylsulfamoyl)-N-diphenylmethylacetamide], the IC50 in test [1] is greater than 1000 nM.

With `CCCCCCCCCCCCNC(=O)CS(=O)(=O)Nc1c(C(C)C)cccc1C(C)C` [Example 5, 2-(2,6-Diisopropylphenylsulfamoyl)-N-dodecyl-acetamide], the change in vivo at 30 mg/kg with male Sprague-Dawley rats is -29%. Turning to `CC(C)c1cc(C(C)C)c(OC(=O)CS(=O)(=O)Nc2c(C(C)C)cccc2C(C)C)c(C(C)C)c1` [Example 1, 2,4,6-Triisopropylphenyl(2,6-diisopropylphenylsulfamoyl)acetate], the change in vivo at 30 mg/kg in the test on male Sprague-Dawley rats is -19%. `CCCCCCCCOC(=O)CS(=O)(=O)Nc1c(C(C)C)cccc1C(C)C` [Example 23, (2,6-Diisopropylphenylsulfamoyl)-acetic Acid Octyl Ester] returned an IC50 in test [1] greater than 1000 nM. For the same molecule, the change in vivo at 30 mg/kg in the test on male Sprague-Dawley rats was -4%. In test [1], `CC(C)c1cc(C(C)C)c(NS(=O)(=O)CC(=O)Oc2c(C(C)C)cccc2C(C)C)c(C(C)C)c1` [Example 31, (2,4,6-Triisopropylphenylsulfamoyl)-acetic Acid, 2,6-Diisopropyl Ester] had an IC50 greater than 1000 nM. Besides, in the test with male Sprague-Dawley rats, the change in vivo at 30 mg/kg was -29%.

In test [1], `CC(C)c1cccc(C(C)C)c1NS(=O)(=O)CC(=O)NCC(c1ccccc1)C1CCCC1` (centres unmarked) [Example 9, 2-(2,6-Diisopropylphenylsulfamoyl)-N-(2-cyclopentyl-2-phenylethyl)-acetamide] showed an IC50 greater than 1000 nM. Take `COc1cc(OC)c(NC(=O)CS(=O)(=O)Nc2c(OC)cc(OC)cc2OC)c(OC)c1` [Example 27, N-(2,4,6-trimethyoxyphenyl)-2-(2,4,6-trimethoxy-phenylsulfamoyl)-acetamide]: the IC50 in test [1] was 7600 nM. In the test on male Sprague-Dawley rats, the change in vivo at 30 mg/kg amounted to 5%. As for `CCCCCCCCCCCCCCOC(=O)CS(=O)(=O)Nc1c(C(C)C)cccc1C(C)C` [Example 20, (2,6-Diisopropylphenylsulfamoyl)-acetic Acid Tetradecyl Ester], in the test with male Sprague-Dawley rats, the change in vivo at 30 mg/kg is -45%. As to `CC(C)c1cccc(C(C)C)c1NS(=O)(=O)CC(=O)N(Cc1ccccc1)C(C)C` [Example 7, N-Benzyl-N-isopropyl-2-(2,6-diisopropylphenylsulfamoyl)acetamide], the change in vivo at 30 mg/kg in the test on male Sprague-Dawley rats is -31%.

As to `CCCCCCCCSC(=O)CS(=O)(=O)Nc1c(C(C)C)cccc1C(C)C` [Example 11, (2,6-Diisopropylphenylsulfamoyl)-thio-acetic Acid S-octyl Ester], the change in vivo at 30 mg/kg in the test with male Sprague-Dawley rats was -32%. Take `Cc1cccc(C)c1SC(=O)CS(=O)(=O)Nc1c(C(C)C)cccc1C(C)C` [Example 19, (2,6-Diisopropylphenylsulfamoyl)-thioacetic Acid S-2,6-dimethylphenyl Ester]: the IC50 in test [1] was greater than 5000 nM. Further, the change in vivo at 30 mg/kg in the test on male Sprague-Dawley rats was found to be 3%. In the same order, the values of `CC(C)c1cccc(C(C)C)c1NS(=O)(=O)CC(=O)O` [Example 30, (2,6-Diisopropylphenylsulfamoyl)-acetic Acid] are greater than 1000 nM and 3%. In test [1], `CC(C)c1cccc(C(C)C)c1NS(=O)(=O)CC(=O)Oc1c(C(C)C)cccc1C(C)C` [Example 22, 2,6,-Diissoproplphenyl(2,6-diisopropylphenylsulfamoyl)acetate] displayed an IC50 of 17600 nM. Moreover, in the test on male Sprague-Dawley rats, the change in vivo at 30 mg/kg is -7%. With `CCCCCCCCCCCCCCSC(=O)CS(=O)(=O)Nc1c(C(C)C)cccc1C(C)C` [Example 15, (2,6-Diisopropylphenylsulfamoyl)-thio-acetic Acid S-tetradecyl Ester], the change in vivo at 30 mg/kg in the test with male Sprague-Dawley rats was -23%.
